From article PMC6572184, “New γ-Halo-δ-lactones and δ-Hydroxy-γ-lactones with Strong Cytotoxic Activity” (Molecules, 2019)

Key:
Type in all cases: cell-based
[1] = system: AGS cell lines (human gastric adenocarcinoma); test: MTT reduction cytotoxicity assay; conditions: for mean percentage of viable cells ± SD: 24 h
Experimental: (§1) Cell cultures: The L929 mouse fibroblasts and human gastric adenocarcinoma cell line AGS were used for in vitro cytotoxicity assays. The cells were maintained under standard conditions (37 ^∘ C, 5% CO 2 ) in 25 cm^2 tissue culture flasks in RPMI-1640 medium supplemented with 10% fetal bovine serum (FBS) and antibiotics: 100 U/mL penicillin and 100 μ g/mL streptomycin. The cell suspension containing 10 ^8 cells in 1 mL, was obtained by treatment of confluent monolayers with 0.25% trypsin solution, washed and subcultured. Cell cultures were supplemented with medium to maintain them in log phase growth. The viability of the cells was assessed by exclusion of trypan blue dye.
(§2) Measurements of cellular metabolic activity and global growth inhibition: L929 cells were seeded into 96-well plates (2 × 10 ^5 cells/well) for 24 h, at 37 ^∘ C, 5% CO2 . Tested compounds 5a–c, 6a–c, 7a–c, 8a–c, 9b,c, 10b,c, 12a and 13a were diluted serially in RPMI-1640 medium in concentrations of 50, 20, 10, 5, 0.5 and 0.1 μ g/mL, added to the cells (100 μ L/well), and incubated under standard conditions for 24 h. The potential harmful effect of lactones on L929 and AGS cells was assessed by the ability of the cells to reduce 3-(4,5-dimethylthiazol-2-yl)-2,5-diphenyltetrazolium bromide (MTT) to formazan. The solution of MTT (5 mg/mL in PBS), was added to each well and the plates were incubated for 4h at 37 ^∘ C. Formazan crystals were dissolved with acidic isopropanol (0.1 M HCl in absolute isopropanol) and the plates were read in a plate reader (Victor 2) at 570 nm. The percentage of MTT reduction was calculated by comparing the absorbance of treated cells to that of untreated control cells. Results are expressed as the mean percentage of viable cells ± standard deviation (SD) of four independent experiments. Statistical significance was accepted at a p-value < 0.05.

[2] = system: L929 cell lines (mouse fibroblasts); test: MTT reduction cytotoxicity assay; conditions: 24 h
Experimental: as §1, §2

[3] = system: Staphylococcus aureus ATCC 65389; test: Bactericidal activity, CFU counting method; conditions: S. aureus ATCC 65389; for Number of CFU/mL (× 10^7): 18 h at 37 °C, Control 21.36, Control with DMSO 20.85; for less CFU/mL (reduction of the number of CFU/mL): versus control
Experimental: (§3) The bacterial cultures: Escherichia coli ATCC 8739 and Staphylococcus aureus ATCC 65389 were grown on Luria–Bertani Agar for 18 h at 37 ^∘ C. The strain suspension was prepared in 0.85% saline, with an optical density equivalent to a 0.5 McFarland standard. Next, the following mixtures were prepared: 180 μ L of sterile enriched broth (BTL), 10 μ L of the bacterial suspension and 10 μ L of the tested compound (range 0.1–50 μ g/mL) solubilized in DMSO. As a negative control, only DMSO was added. As a sterility control, 180 μ L of BTL and 20 μ L saline were used. The microtiter plate was incubated at 37 ^∘ C for 18 h. The colony forming unit (CFU) method was used to evaluate the microbial population. The experiment was repeated three times. Gentamicin was used as the reference antibiotic.

[4] = system: Escherichia coli ATCC 8739; test: Bactericidal activity, CFU counting method; conditions: E. coli ATCC 8739; for Number of CFU/mL (× 10^7): 18 h at 37 °C, Control 9.47, Control with DMSO 9.30
Experimental: as §3

| Compound | IC50 [1] | mean percentage of viable cells ± SD ([1]; 0.1 μg/mL) | mean percentage of viable cells ± SD ([1]; 0.5 μg/mL) | mean percentage of viable cells ± SD ([1]; 5 μg/mL) | mean percentage of viable cells ± SD ([1]; 10 μg/mL) | mean percentage of viable cells ± SD ([1]; 20 μg/mL) | mean percentage of viable cells ± SD ([1]; 50 μg/mL) | mean percentage of viable cells ± SD ([2]; 0.1 μg/mL) | mean percentage of viable cells ± SD ([2]; 0.5 μg/mL) | mean percentage of viable cells ± SD ([2]; 5 μg/mL) | mean percentage of viable cells ± SD ([2]; 10 μg/mL) | mean percentage of viable cells ± SD ([2]; 20 μg/mL) | mean percentage of viable cells ± SD ([2]; 50 μg/mL) | Number of CFU/mL (× 10^7) [3] | Number of CFU/mL (× 10^7) [4] | less CFU/mL (reduction of the number of CFU/mL) [3] | less CFU/mL (reduction of the number of CFU/mL) ([4]; versus control) |
| --- | --- | --- | --- | --- | --- | --- | --- | --- | --- | --- | --- | --- | --- | --- | --- | --- | --- |
| CC1CC(=O)OC(c2ccccc2)C1Br (mixture of isomers) [8b, Cis,trans-5-bromo-tetrahydro-4-methyl-6-phenylpyran-2-one] | 1.9 µM | 44 ± 0.15% | 35 ± 0.10% | 31 ± 0.02% | 28 ± 0.09% | 17 ± 0.10% | 11 ± 0.05% | 24 ± 0.03% | 17 ± 0.08% | 15 ± 0.03% | 8 ± 0.05% | 4 ± 0.08% | 1 ± 0.02% | 9.04 × 10^7 CFU/mL | 5.83 × 10^7 CFU/mL |  |  |
| CC1CC(=O)OC(c2ccc(F)cc2)C1Cl (stereo not drawn) [5c, Trans,trans-5-chloro-6-(4-fluorophenyl)-tetrahydro-4-methylpyran-2-one] | 0.6 µM | 54 ± 0.12% | 47 ± 0.12% | 44 ± 0.10% | 34 ± 0.09% | 21 ± 0.08% | 10 ± 0.12% | 26 ± 0.03% | 21 ± 0.15% | 14 ± 0.09% | 10 ± 0.03% | 4 ± 0.06% | 2 ± 0.12% | 14.83 × 10^7 CFU/mL | 9.46 × 10^7 CFU/mL |  |  |
| CC1CC(=O)OC(c2cccc3ccccc23)C1Cl (mixture of isomers) [6a, Cis,trans-5-chloro-tetrahydro-4-methyl-6-(naphthalen-1-yl)pyran-2-one] | 1.9 µM | 35 ± 0.06% | 28 ± 0.07% | 23 ± 0.09% | 19 ± 0.01% | 8 ± 0.09% | 8 ± 0.05% | 15 ± 0.03% | 11 ± 0.08% | 9 ± 0.15% | 7 ± 0.07% | 6 ± 0.03% | 2 ± 0.09% | 5.20 × 10^7 CFU/mL | 7.58 × 10^7 CFU/mL |  |  |
| CC1CC(=O)OC(c2cccc3ccccc23)C1Br (mixture of isomers) [8a, Cis,trans-5-bromo-tetrahydro-4-methyl-6-(naphthalen-1-yl)pyran-2-one] | 1.6 µM | 61 ± 0.10% | 47 ± 0.06% | 39 ± 0.09% | 25 ± 0.05% | 17 ± 0.07% | 9 ± 0.09% | 23 ± 0.03% | 19 ± 0.03% | 14 ± 0.03% | 7 ± 0.06% | 4 ± 0.02% | 1 ± 0.15% | 9.29 × 10^7 CFU/mL | 7.14 × 10^7 CFU/mL | 83% |  |
| CC1CC(=O)OC(c2ccc(F)cc2)C1Br (mixture of isomers) [8c, Cis,trans-5-bromo-6-(4-fluorophenyl)-tetrahydro-4-methylpyran-2-one] | 2.5 µM | 69 ± 0.15% | 58 ± 0.10% | 43 ± 0.10% | 18 ± 0.07% | 11 ± 0.03% | 10 ± 0.09% | 25 ± 0.03% | 20 ± 0.08% | 15 ± 0.03% | 11 ± 0.03% | 5 ± 0.02% | 1 ± 0.05% | 3.60 × 10^7 CFU/mL | 8.87 × 10^7 CFU/mL | 78–83% |  |
| CC1CC(=O)OC(c2ccccc2)C1Cl (mixture of isomers) [6b, Cis,trans-5-chloro-tetrahydro-4-methyl-6-phenylpyran-2-one] | 4.4 µM | 42 ± 0.02% | 35 ± 0.02% | 28 ± 0.03% | 21 ± 0.02% | 14 ± 0.07% | 8 ± 0.06% | 32 ± 0.07% | 27 ± 0.12% | 25 ± 0.02% | 16 ± 0.03% | 4 ± 0.15% | 2 ± 0.05% | 3.58 × 10^7 CFU/mL | 6.32 × 10^7 CFU/mL | 78–83% |  |
| CC1CC(=O)OC(c2ccc(F)cc2)C1Br (stereo not drawn) [7c, Trans,trans-5-bromo-6-(4-fluorophenyl)-tetrahydro-4-methylpyran-2-one] | 3.5 µM | 63 ± 0.03% | 49 ± 0.06% | 42 ± 0.02% | 25 ± 0.12% | 18 ± 0.10% | 8 ± 0.07% | 27 ± 0.08% | 21 ± 0.08% | 17 ± 0.02% | 11 ± 0.08% | 5 ± 0.05% | 1 ± 0.03% | 6.42 × 10^7 CFU/mL | 6.52 × 10^7 CFU/mL |  |  |
| CC1CC(=O)OC(c2ccc(F)cc2)C1Cl (mixture of isomers) [6c, Cis,trans-5-chloro-6-(4-fluorophenyl)-tetrahydro-4-methylpyran-2-one] | 2.9 µM | 49 ± 0.10% | 37 ± 0.05% | 28 ± 0.06% | 16 ± 0.10% | 14 ± 0.07% | 6 ± 0.08% | 24 ± 0.03% | 22 ± 0.05% | 18 ± 0.12% | 9 ± 0.05% | 4 ± 0.08% | 2 ± 0.02% | 7.39 × 10^7 CFU/mL | 2.06 × 10^7 CFU/mL | 83% | 70–78% |
